# Where a name gives a salt, the structure may show the parent alone.
# Assays:
# [1] = target: T1, recombinant human 5-HT2A receptor (Homo sapiens, UniProt P28223); test: Determination of Kb at 5-HT2A receptor, pCRE-Luc reporter gene assay in CHO cells; assay type: cell-based
# T1 construct: expressed in transfected cells
# Procedure: A stable CHO cell line expressing recombinant human 5-HT2A receptor and pCRE-Luc reporter system was used for cell-based assay. The assay offers a non-radioactive based approach to determine binding of a compound to GPCRs. In this specific assay, the level of intracellular cAMP which is modulated by activation or inhibition of the receptor was measured. The recombinant cells harbor luciferase reporter gene under the control of cAMP response element.
# The above cells were grown in 96 well clear bottom white plates in Hams F12 medium containing 10% fetal bovine serum (FBS). Prior to the addition of compounds or standard agonist, cells were serum starved overnight. Increasing concentrations of test compound were added along with 1 μM of serotonin in Opti-MEM medium to the cells. The incubation was continued at 37° C. in CO2 incubator for 4 hours. Medium was removed and cells were washed with phosphate buffered saline. The cells were lysed and luciferase activity was measured in a Luminometer. Luminescence units were plotted against the compound concentrations using GraphPad Prism software. EC50 values of the compounds were defined as the concentration required in reducing the luciferase activity by 50%. The Kb values were calculated by feeding the concentration of agonist used in the assay and its EC50 value in the same software.
# Male Wistar rats [2] = test: Effect on sleep/wake profile (EEG/EMG telemetry); assay type: in vivo, rat; conditions: 10 mg/kg, p.o., dosed 15 min prior to lights-off
# Source text: Male Wistar rats were anesthetized with isoflurane (Baxter India Private Limited: 4% in oxygen for induction; 2% for maintenance) and were fixed into the stereotaxic frame (Stoelting, Illinois, USA) to perform surgery. An incision was made to reveal bregma from which coordinates were taken. Telemetric transmitter (Model F40-EET; DSI, St. Paul, MN, USA) was implanted into intraperitoneal cavity of the rats and leads were tunneled subcutaneously to the skull. One pair of electrodes were implanted epidurally into the frontal cortex region using stainless steel screws (CMA Microdialysis, Stockholm, Sweden) at coordinates of AP +3.2 mm, ML ±3.0 mm (Paxinos and Watson 2004) for recording of EEG and electrodes were fixed to the skull with dental acrylic cement (Dentalon® plus). The second set of lead wires were implanted into the neck nuchal muscle to record electromyogram (EMG). After a surgical recovery of minimum 3 weeks, animals were acclimatized to the handling procedures and were given a mock dosing for 3 days before the first experimental day.
# One hour prior to lights-off, transmitter was switched on using a magnet and animals were transferred on to the receiver along with the home cage. […]
# The amount of time spent in wake was determined for every 30 min and comparison between treatments was done using Bonferroni's post test.
# Rats = test: Tardive dyskinesia test (vacuous chewing movements and tongue protrusions); assay type: in vivo, rat; conditions: 10 mg/kg, p.o. (5 mg twice a day) for 4 weeks
# Procedure: Rats weighing 200-230 g were acclimatized to the plexiglass observation cages (30×20×30 cm) equipped with mirrors for 5 min. After acclimatization, basal vacuous chewing movements (VCMs) and tongue protrusions (TPs) of the rats were quantified manually for 5 min. Rats were randomized based on the basal readings. Rats received a single dose of sesame oil (vehicle treatment) or haloperidol decanoate (38 mg/kg, i.m. positive control). Example-2, 10 mg/kg, p.o. ([…]) was administered for 4 weeks. VCMs and TPs were scored on weekly basis for 4 weeks. Tardive dyskinesia is a side effect of antipsychotic medications.
# Male CD1 mice = test: Resident-intruder task; assay type: in vivo, mouse; conditions: 3.0 mg/kg, p.o., 30 min prior to trial
# Procedure: Male CD1 mice of weight 20-35 g (Resident) and 15-25 g (Intruder) were used. Resident mice were habituated individually with an ovariectomized female mouse in each cage and intruders were habituated socially for 1 week. β-estradiol at a dose of 0.2 mg/kg, s.c. was administered to female mice during habituation. On day 1 and day 2, intruder was exposed to resident mouse in resident's home cage for a period of 10 min and duration of attack was measured. During this exposure, female mouse were removed from the cage. On day 4 from initial exposure, animals were randomized based on their duration of attacking and administered respective treatments. Test compound and vehicle were administered 30 min prior to the trial. After post dose interval resident mice were exposed to same intruder for 10 min and duration of attack was recorded. Resident intruder task models aggressive behavior.
# Male Sprague Dawley rats = test: Amphetamine-induced hyperlocomotion; assay type: in vivo, rat; conditions: 3 mg/kg, p.o., dosed 30 min prior to trial
# Procedure: Male Sprague Dawley rats of 230-280 g body weight were used. Rats were weighed and randomized according to their body weights. Following day, the rats were brought to the laboratory 1 h prior to test. In the morning session, rats were habituated to open field arena for 15 min. Test compound/vehicle and amphetamine/vehicle were administered 30 min prior to the trial. After the post-dose interval, rats were placed in the open field and locomotion was recorded for a period of 15 min. Amphetamine-induced hyperlocomotion models positive symptoms of schizophrenia.
# Male Wistar rats [3] = test: DOI-induced head twitch response; assay type: in vivo, rat; conditions: 3.0 mg/kg, s.c., 30 min prior to DOI
# Procedure: On day 1 male Wistar rats (220-250 g) were habituated in a circular cylinder for a period of 15 min. On day 2, the rats were brought to the experimental room 30 min prior to the experiment. All the animals were administered with respective formulations i.e. vehicle or test compound 30 min prior to DOI or vehicle administration. Immediately following DOI or vehicle administration, the animals were kept in the circular cylinder for a period of 10 min to score the head twitches. Compounds which act as 5-HT2A antagonists attenuate DOI-induced head twitches.
# dopamine receptor = test: Reserpine-induced dihydroxyphenylalanine (DOPA) accumulation assay in rat striatum; assay type: in vivo; conditions: s.c.
# Procedure: Reserpine (5.0 mg/kg, s.c.) was injected, after which rats were fasted for 18 h before sacrifice. […] Each rat was sacrificed and the striatum was dissected out of the whole brain on ice. Each striatum was weighed and homogenized individually in buffer containing 0.01 N hydrochloric acid and 0.2 mg/ml L-cysteine. Supernatants were subjected for quantification of DOPA using HPLC coupled to electrochemical detector.
# T1 sequence (P28223 whole entry): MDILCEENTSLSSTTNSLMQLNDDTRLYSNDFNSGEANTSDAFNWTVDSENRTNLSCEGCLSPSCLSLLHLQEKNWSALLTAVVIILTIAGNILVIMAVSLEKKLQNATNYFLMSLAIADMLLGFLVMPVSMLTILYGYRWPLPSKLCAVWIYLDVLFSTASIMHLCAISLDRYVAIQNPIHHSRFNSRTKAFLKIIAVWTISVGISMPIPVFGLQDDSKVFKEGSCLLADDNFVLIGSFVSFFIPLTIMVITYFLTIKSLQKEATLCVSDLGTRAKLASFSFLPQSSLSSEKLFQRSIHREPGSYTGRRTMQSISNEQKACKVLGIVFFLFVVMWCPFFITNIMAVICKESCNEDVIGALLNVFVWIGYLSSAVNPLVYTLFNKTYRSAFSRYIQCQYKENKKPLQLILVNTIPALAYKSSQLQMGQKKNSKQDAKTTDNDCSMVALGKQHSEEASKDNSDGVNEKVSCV
smiles,measurement,setting,value
"O=C1C[C@@H]2CCCN2C(=O)N1CCCCN1CCN(c2nsc3ccccc23)CC1 [Example 2, 2-[4-(4-Benzo[d]isothiazol-3-yl-piperazin-1-yl)-butyl]-tetrahydro-pyrrolo[1,2-c]pyrimidine-1,3-dione oxalate]",agonist activity at human recombinant 5-HT2A receptor,[1]; pCRE-Luc reporter gene assay,no detectable agonist activity
same,antagonistic activity at human recombinant 5-HT2A receptor,[1]; pCRE-Luc reporter gene assay,antagonistic activity
same,Kb,"[1]; with 1 μM serotonin, luciferase readout",8 nM
same,change in percent time wake,Male Wistar rats [2],no change
same,"Inference, tardive dyskinesia like symptoms (VCMs and TPs)",Rats,Example-2 did not show tardive
same,"Inference, resident intruder task (duration of attack)",Male CD1 mice,Active
same,"Inference, amphetamine antagonism (hyperlocomotion)",Male Sprague Dawley rats,Active
same,"Inference, DOI-induced head twitch response",Male Wistar rats [3],Active
same,change in reserpine elevated DOPA levels in striatum,"dopamine receptor; 10 mg/kg, rat, reserpine 5.0 mg/kg",no change
same,effect of pre-treatment on apomorphine's decrease of reserpine-induced DOPA accumulation,"dopamine receptor; pre-treatment before apomorphine 0.1 mg/kg, rat striatum",blocked the effects of apomorphine

# From patent US12391698B2, “Substituted piperidines and piperazines and methods for the treatment of CNS disorders” (SUVEN LIFE SCIENCES LIMITED, priority 2022, dated 2025)
